≈ marks a conversion by molar mass, not a printed value.
Columns and labels:
MCF7 cell line = assay: MTT assay, MCF7 cell line; format: cell-based, human; conditions: 24 hr treatment, in % (unit assumed); for Cytotoxicity at 5 µg/l: MCF7, 5 µg/l; for Cytotoxicity at 10 µg/l: MCF7, 10 µg/l; for Cytotoxicity at 20 µg/l: MCF7, 20 µg/l
Protocol: (§1) Determination of the inhibitory effects of compounds on cell growth was performed through the MTT assay. This colorimetric assay is based on the conversion of the yellow tetrazolium bromide (MTT) to a purple formazan derivative by mitochondrial succinate dehydrogenase in viable cells. The protocol was discussed in details in Additional file 1.
(§2) Compounds 1, 4a,b, 7a–c, 7k, l, 9a–c, 14a, 15b, 16a–c were selected to be investigated against three human cancer cell lines MCF7, HepG2 and HCT116 cell lines using MTT assay using doxorubicin as the standard drug. Each point is the mean ± SD (standard deviation) of three independent experiments performed in triplicate, using the prism software program (integrated Graphpad software, version 3).
(§3) Cell lines were used to measure the cell growth effects of the compounds using the MTT assay. This colorimetric assay is depend on the conversion of the yellow tetrazolium bromide (MTT) to a purple formazan derivative by mitochondrial succinate dehydrogenase in living cells. Cell lines were cultured in RPMI-1640 medium supplemented with 10% fetal bovine serum. The antibiotics added were 100 units/ml penicillin and 100 µg/ml streptomycin at 37 °C in a 5% CO2 incubator. Cell lines were seeded in a 96-well plates at a density of 1.0x10^4 cells/well and cultured at 37 °C for 48 h under 5% CO2. After incubation, the cells were treated with different concentrations of compounds and incubated for 24 hr. After 24 hr of drug treatment, 20 µl of MTT solution at 5 mg/ml was added to each well and incubated for 4 hr. 100 µl of dimethyl sulfoxide (DMSO) was added into each well to dissolve the purple formazan formed. The colorimetric assay was measured and recorded at absorbance of 570 nm using a plate reader (EXL 800, USA). Relative cell viability (%) was calculated as (A570 of treated sample/A570 of untreated sample) x 100 [36, 37].

HepG2 cell line = assay: MTT assay, HepG2 cell line; format: cell-based, human; conditions: for Cytotoxicity at 5 µg/l: HepG2, 5 µg/l; for Cytotoxicity at 5 µg/l / Cytotoxicity at 10 µg/l / Cytotoxicity at 20 µg/l: MTT, 24 hr treatment, in % (unit assumed); for Cytotoxicity at 10 µg/l: HepG2, 10 µg/l; for Cytotoxicity at 20 µg/l: HepG2, 20 µg/l
Protocol: as §1, §2, §3

HCT-116 cell line = assay: MTT assay, HCT-116 cell line; format: cell-based, human; conditions: for Cytotoxicity at 5 µg/l: HCT116, 5 µg/l; for Cytotoxicity at 5 µg/l / Cytotoxicity at 10 µg/l / Cytotoxicity at 20 µg/l: MTT, 24 hr treatment, in % (unit assumed); for Cytotoxicity at 10 µg/l: HCT116, 10 µg/l; for Cytotoxicity at 20 µg/l: HCT116, 20 µg/l
Protocol: as §1, §2, §3

| SMILES | melting point | also measured |
| --- | --- | --- |
| O=C1NC(=O)c2c(nn3c(-c4ccccc4)cc(-c4ccccc4)nc23)C1=Cc1ccncc1 [Compound 7t, 2,4-Diphenyl-7-(pyridin-4-ylmethylene)pyrido[4ʹ,3ʹ:3,4]pyrazolo[1,5-a]pyrimidine-8,10(7H,9H)-dione] | 340 °C |  |
| O=C1NC(=O)c2c(nn3c(-c4ccccc4)cc(-c4ccccc4)nc23)C1=Cc1ccc2c(c1)OCO2 [Compound 7q, 7-(Benzo[d][1,3]dioxol-5-ylmethylene)-2,4-diphenylpyrido[4ʹ,3ʹ:3,4]pyrazolo[1,5-a]-pyrimidine-8,10(7H,9H)-dione] | 335 °C |  |
| O=C1NC(=O)c2c(nn3c(-c4ccccc4)cc(-c4ccccc4)nc23)C1=Cc1cccs1 [Compound 7s, 2,4-Diphenyl-7-(thiophen-2-ylmethylene)pyrido[4ʹ,3ʹ:3,4]pyrazolo[1,5-a]pyrimidine-8,10(7H,9H)-dione] | 315 °C |  |
| COc1cccc2c1C(=O)c1c(O)c3c(c(O)c1C2=O)C[C@@](O)(C(=O)CO)C[C@@H]3O[C@H]1C[C@H](N)[C@H](O)[C@H](C)O1 [Doxo, Doxorubicin, reference compound] |  | Cytotoxicity at 5 µg/l (MCF7 cell line): 75.43; Cytotoxicity at 10 µg/l (MCF7 cell line): 89.14; Cytotoxicity at 20 µg/l (MCF7 cell line): 98.19; Cytotoxicity at 5 µg/l (HepG2 cell line): 53.46; Cytotoxicity at 10 µg/l (HepG2 cell line): 68.59; Cytotoxicity at 20 µg/l (HepG2 cell line): 91.13; IC50 (HepG2 cell line; Homo sapiens, HepG2, MTT, read-out: IC50 (drug concentration that inhibited 50% of cell proliferation)): 4.75 ng/mL (≈ 8.74 nM); Cytotoxicity at 5 µg/l (HCT-116 cell line): 62.14; Cytotoxicity at 10 µg/l (HCT-116 cell line): 77.18; Cytotoxicity at 20 µg/l (HCT-116 cell line): 95.26; IC50 (HCT-116 cell line; Homo sapiens, HCT-116, HCT116, MTT, read-out: IC50 (drug concentration that inhibited 50% of cell proliferation)): 3.64 ng/mL (≈ 6.7 nM) |
| Cc1cc(C)n2nc3c(c2n1)C(=O)NC(=O)C3=NNc1ccc(Cl)cc1 [Compound 9d, 7-(2-(4-Chlorophenyl)hydrazono)-2,4-dimethylpyrido[4ʹ,3ʹ:3,4]pyrazolo[1,5-a]pyrimidine-8,10(7H,9H)-dione] | 300 °C |  |
| COc1ccc(OC)c(C=C2C(=O)NC(=O)c3c2nn2c(-c4ccccc4)cc(-c4ccccc4)nc32)c1 [Compound 7o, 7-(2,5-Dimethoxybenzylidene)-2,4-diphenylpyrido[4ʹ,3ʹ:3,4]pyrazolo[1,5-a]pyrimidine-8,10(7H,9H)-dione] | 275 °C |  |
| Cc1ccc(NN=C2C(=O)NC(=O)c3c2nn2c(-c4ccccc4)cc(-c4ccccc4)nc32)cc1 [Compound 11b, 2,4-Diphenyl-7-(2-(p-tolyl)hydrazono)pyrido[4ʹ,3ʹ:3,4]pyrazolo[1,5-a]pyrimidine-8,10(7H,9H)-dione] | 320 °C |  |
| Cc1cc(O)n2nc3c(c2n1)C(=O)NC(=O)C3=NNc1ccc(Cl)cc1 [Compound 16d, 7-(2-(4-Chlorophenyl)hydrazono)-4-hydroxy-2-methylpyrido[4ʹ,3ʹ:3,4]pyrazolo[1,5-a]pyrimidine-8,10(7H,9H)-dione] | 310 °C |  |
| Cc1ccc(NN=C2C(=O)NC(=O)c3c2nn2c(O)cc(-c4ccccc4)nc32)cc1 [Compound 16f, 4-Hydroxy-2-phenyl-7-(2-(p-tolyl)hydrazono)pyrido[4ʹ,3ʹ:3,4]pyrazolo[1,5-a]pyrimidine-8,10(7H,9H)-dione] | 320 °C |  |
| O=C1NC(=O)c2c(nn3c(-c4ccccc4)cc(-c4ccccc4)nc23)C1=Cc1ccc(Cl)cc1 [Compound 7m, 7-(4-Chlorobenzylidene)-2,4-diphenylpyrido[4ʹ,3ʹ:3,4]pyrazolo[1,5-a]pyrimidine-8,10(7H,9H)-dione] | 320 °C |  |
| O=C1NC(=O)c2c(nn3c(O)cc(-c4ccccc4)nc23)C1=Cc1ccccc1 [Compound 15d, 7-Benzylidene-4-hydroxy-2-phenylpyrido[4ʹ,3ʹ:3,4]pyrazolo[1,5-a]pyrimidine-8,10(7H,9H)-dione] | 300 °C |  |
| O=C1Cc2nn3c(O)cc(-c4ccccc4)nc3c2C(=O)N1 [Compound 14b, 4-Hydroxy-2-phenylpyrido[4ʹ,3ʹ:3,4]pyrazolo[1,5-a]pyrimidine-8,10(7H,9H)-dione] | 310 °C |  |
| Cc1cc(O)n2nc3c(c2n1)C(=O)NC(=O)C3=Cc1ccc(Cl)cc1 [Compound 15c, 7-(4-Chlorobenzylidene)-4-hydroxy-2-methylpyrido[4ʹ,3ʹ:3,4]pyrazolo[1,5-a]pyrimidine-8,10(7H,9H)-dione] | 330 °C |  |
| Cc1cc(C)n2nc3c(c2n1)C(=O)NC(=O)C3=Cc1ccc2c(c1)OCO2 [Compound 7g, 7-(Benzo[d][1,3]dioxol-5-ylmethylene)-2,4-dimethylpyrido[4ʹ,3ʹ:3,4]pyrazolo[1,5-a]-pyrimidine-8,10(7H,9H)-dione] | 300 °C |  |
| Cc1cc(O)n2nc3c(c2n1)C(=O)NC(=O)C3=Cc1ccccc1 [Compound 15a, 7-Benzylidene-4-hydroxy-2-methylpyrido[4ʹ,3ʹ:3,4]pyrazolo[1,5-a]pyrimidine-8,10(7H,9H)-dione] | 305 °C |  |
| COc1cc(C=C2C(=O)NC(=O)c3c2nn2c(-c4ccccc4)cc(-c4ccccc4)nc32)cc(OC)c1OC [Compound 7p, 2,4-Diphenyl-7-(3,4,5-trimethoxybenzylidene)pyrido[4ʹ,3ʹ:3,4]pyrazolo[1,5-a]-pyrimidine-8,10(7H,9H)-dione] | 315 °C |  |
| COc1ccc(C=C2C(=O)NC(=O)c3c2nn2c(O)cc(-c4ccccc4)nc32)cc1 [Compound 15e, 4-Hydroxy-7-(4-methoxybenzylidene)-2-phenylpyrido[4ʹ,3ʹ:3,4]pyrazolo[1,5-a]pyrimidine-8,10(7H,9H)-dione] | 300 °C |  |
| O=C1NC(=O)c2c(nn3c(-c4ccccc4)cc(-c4ccccc4)nc23)C1=Cc1ccco1 [Compound 7r, 7-(Furan-2-ylmethylene)-2,4-diphenylpyrido[4ʹ,3ʹ:3,4]pyrazolo[1,5-a]pyrimidine-8,10(7H,9H)-dione] | 335 °C |  |
| COc1cc(C=C2C(=O)NC(=O)c3c2nn2c(C)cc(C)nc32)cc(OC)c1OC [Compound 7f, 2,4-Dimethyl-7-(3,4,5-trimethoxybenzylidene)pyrido[4ʹ,3ʹ:3,4]pyrazolo[1,5-a]pyrimidine-8,10(7H,9H)-dione] | 240 °C |  |
| Cc1cc(C)n2nc3c(c2n1)C(=O)NC(=O)C3=Cc1cccs1 [Compound 7i, 2,4-Dimethyl-7-(thiophen-2-ylmethylene)pyrido[4ʹ,3ʹ:3,4]pyrazolo[1,5-a]pyrimidine-8,10(7H,9H)-dione] | 290 °C |  |
| Cc1cc(C)n2nc3c(c2n1)C(=O)NC(=O)C3=Cc1ccncc1 [Compound 7j, 2,4-Dimethyl-7-(pyridin-4-ylmethylene)pyrido[4ʹ,3ʹ:3,4]pyrazolo[1,5-a]pyrimidine-8,10(7H,9H)-dione] | 270 °C |  |
| COc1ccc(NN=C2C(=O)NC(=O)c3c2nn2c(O)cc(-c4ccccc4)nc32)cc1 [Compound 16g, 4-Hydroxy-7-(2-(4-methoxyphenyl)hydrazono)-2-phenylpyrido[4ʹ,3ʹ:3,4]pyrazolo[1,5-a]pyrimidine-8,10(7H,9H)-dione] | 323 °C |  |
| Cc1cc(C)n2nc3c(c2n1)C(=O)NC(=O)C3=Cc1ccccc1O [Compound 7d, 7-(2-Hydroxybenzylidene)-2,4-dimethylpyrido[4ʹ,3ʹ:3,4]pyrazolo[1,5-a]pyrimidine-8,10(7H,9H)-dione] | > 360 °C |  |
| O=C1NC(=O)c2c(nn3c(-c4ccccc4)cc(-c4ccccc4)nc23)C1=NNc1ccccc1 [Compound 11a, 2,4-Diphenyl-7-(2-phenylhydrazono)pyrido[4ʹ,3ʹ:3,4]pyrazolo[1,5-a]pyrimidine-8,10(7H,9H)-dione] | 315 °C |  |
| O=C1NC(=O)c2c(nn3c(O)cc(-c4ccccc4)nc23)C1=NNc1ccccc1 [Compound 16e, 4-Hydroxy-2-phenyl-7-(2-phenylhydrazono)pyrido[4ʹ,3ʹ:3,4]pyrazolo[1,5-a]pyrimidine-8,10(7H,9H)-dione] | 300 °C |  |
| Nc1n[nH]c2c1C(=O)NC(=O)C2 [Compound 1, 3-amino-1,7-dihydro-4H-pyrazolo[4,3-c]pyridine-4,6(5H)-dione] |  | Cytotoxicity at 5 µg/l (MCF7 cell line): 31.71; Cytotoxicity at 10 µg/l (MCF7 cell line): 61.39; Cytotoxicity at 20 µg/l (MCF7 cell line): 73.65; Cytotoxicity at 5 µg/l (HepG2 cell line): 43.17; Cytotoxicity at 10 µg/l (HepG2 cell line): 53.18; Cytotoxicity at 20 µg/l (HepG2 cell line): 65.34; Cytotoxicity at 5 µg/l (HCT-116 cell line): 16.23; Cytotoxicity at 10 µg/l (HCT-116 cell line): 52.09; Cytotoxicity at 20 µg/l (HCT-116 cell line): 71.08 |

Source: publication PMC10999085, “Synthesis, anticancer evaluation, molecular docking and ADME study of novel pyrido[4ʹ,3ʹ:3,4]pyrazolo[1,5-a]pyrimidines as potential tropomyosin receptor kinase A (TrKA) inhibitors” (BMC Chemistry, 2024)
